# Source: patent US7608718B2, “4,5-dihydro-1H-pyrazole derivatives having potent CB1-antagonistic activity” (Solvay Pharmaceuticals B.V., priority 2001, dated 2009)
row,melting point,SMILES
1,192 to 194 °C,CSC(=NS(=O)(=O)N1CCCCC1)N1CC(c2ccccc2)C(c2ccc(Cl)cc2)=N1 (centres unmarked)
2,202 to 204 °C,CSC(=NS(=O)(=O)N1CCOCC1)N1CC(c2ccccc2)C(c2ccc(Cl)cc2)=N1 (centres unmarked)
3,181 to 185 °C,CSC(=NS(=O)(=O)N(C)C)N1CC(c2c(F)cccc2F)C(c2ccc(Cl)cc2)=N1 (centres unmarked)
4,182 to 185 °C,"CSC(=NS(=O)(=O)N1CCCCC1)N1CC(c2cccnc2)C(c2ccc(Cl)cc2)=N1 (centres unmarked) [Example 45, 3-(4-Chlorophenyl)-N-((piperidin-1-yl)sulfonyl)-4-(pyridin-3-yl)-4,5-dihydro-1H-pyrazole-1-carboximidothioic acid methyl ester]"
5,205 to 207 °C,"CSC(=NS(=O)(=O)N1CCOCC1)N1CC(c2ccccc2F)C(c2ccc(Cl)cc2)=N1 (centres unmarked) [Example 47, 3-(4-Chlorophenyl)-4-(2-fluorophenyl)-N-((morpholin-4-yl)sulfonyl)-4,5-dihydro-1H-pyrazole-1-carboximidothioic acid methyl ester]"
6,196 to 198 °C,"CSC(=NS(=O)(=O)N1CCCCC1)N1CC(c2ccccc2F)C(c2ccc(Cl)cc2)=N1 (centres unmarked) [Example 48, 3-(4-Chlorophenyl)-4-(2-fluorophenyl)-N-((piperidin-1-yl)sulfonyl)-4,5-dihydro-1H-pyrazole-1-carboximidothioic acid methyl ester]"
7,231 to 233 °C,"CSC(=NS(=O)(=O)N1CCOCC1)N1CC(c2c(F)cccc2F)C(c2ccc(Cl)cc2)=N1 (centres unmarked) [Example 50, 3-(4-Chlorophenyl)-4-(2,6-difluorophenyl)-N-((morpholin-4-yl)sulfonyl)-4,5-dihydro-1H-pyrazole-1-carboximidothioic acid methyl ester]"
8,221 to 225 °C,"CSC(=NS(=O)(=O)N1CCCCC1)N1CC(c2c(F)cccc2F)C(c2ccc(Cl)cc2)=N1 (centres unmarked) [Example 51, 3-(4-Chlorophenyl)-4-(2,6-difluorophenyl)-N-((piperidin-1-yl)sulfonyl)-4,5-dihydro-1H-pyrazole-1-carboximidothioic acid methyl ester]"
9,216 to 217 °C,"CSC(=NS(=O)(=O)N1CCS(=O)(=O)CC1)N1CC(c2ccccc2)C(c2ccc(Cl)cc2)=N1 (centres unmarked) [Example 53, 3-(4-Chlorophenyl)-N-((1,1-dioxidothiomorpholin-4-yl)sulfonyl)-4-phenyl-4,5-dihydro-1H-pyrazole-1-carboximidothioic acid methyl ester]"

# Further lines, the compound ahead of its results:
row,SMILES,melting point
1,CCCN(C)S(=O)(=O)N=C(NC)N1CC(c2ccccc2)C(c2ccc(Cl)cc2)=N1 (centres unmarked),132 to 134 °C
2,CN(C)S(=O)(=O)N=C(NCC(F)(F)F)N1CC(c2ccccc2)C(c2ccc(Cl)cc2)=N1 (centres unmarked),158 to 159 °C
3,CCN(CC)S(=O)(=O)N=C(NC1CC1)N1CC(c2ccccc2)C(c2ccc(Cl)cc2)=N1 (centres unmarked),150 to 151 °C
4,CCN(C)C(=NS(=O)(=O)N1CCCCC1)N1CC(c2ccccc2)C(c2ccc(Cl)cc2)=N1 (centres unmarked),178 °C
5,CCN(c1ccccc1)S(=O)(=O)N=C(NC)N1CC(c2ccccc2)C(c2ccc(Cl)cc2)=N1 (centres unmarked),145 to 147 °C
6,CNC(=NS(=O)(=O)N1CCCCC1)N1CC(c2cccc(C(F)(F)F)c2)C(c2ccc(Cl)cc2)=N1 (centres unmarked),168 to 170 °C
7,CNC(=NS(=O)(=O)N(C)C)N1CC(c2cccc(C(F)(F)F)c2)C(c2ccc(Cl)cc2)=N1 (centres unmarked),65 to 68 °C
8,CCN(C)S(=O)(=O)N=C(NC)N1CC(c2cccnc2)C(c2ccc(Cl)cc2)=N1 (centres unmarked),125 to 128 °C
9,"CCCN(CC)S(=O)(=O)N=C(NC)N1CC(c2ccccc2)C(c2ccc(Cl)cc2)=N1 (centres unmarked) [Example 1, 3-(4-Chlorophenyl)-N′-(((ethyl)propylamino)sulfonyl)-N-methyl-4-phenyl-4,5-dihydro-1H-pyrazole-1-carboxamidine]",129 to 131 °C
10,"CCN(CC)S(=O)(=O)N=C(NCCO)N1CC(c2ccccc2)C(c2ccc(Cl)cc2)=N1 (centres unmarked) [Example 3, 3-(4-Chlorophenyl)-N′-((diethylamino)sulfonyl)-N-(2-hydroxyethyl)-4-phenyl-4,5-dihydro-1H-pyrazole-1-carboxamidine]",104 to 106 °C
11,"CN(C)S(=O)(=O)N=C(NCCO)N1CC(c2ccccc2)C(c2ccc(Cl)cc2)=N1 (centres unmarked) [Example 18, 3-(4-Chlorophenyl)-N′-((dimethylamino)sulfonyl)-N-(2-hydroxyethyl)-4-phenyl-4,5-dihydro-1H-pyrazole-1-carboxamidine]",123 to 126 °C
12,"CCCN(CCC)S(=O)(=O)N=C(NC)N1CC(c2ccccc2)C(c2ccc(Cl)cc2)=N1 (centres unmarked) [Example 26, 3-(4-Chlorophenyl)-N′-((dipropylamino)sulfonyl)-N-methyl-4-phenyl-4,5-dihydro-1H-pyrazole-1-carboxamidine]",141 to 142 °C
13,"CCCNC(=NS(=O)(=O)N(C)C)N1CC(c2ccccc2)C(c2ccc(Cl)cc2)=N1 (centres unmarked) [Example 31, 3-(4-Chlorophenyl)-N′-((dimethylamino)sulfonyl)-N-propyl-4-phenyl-4,5-dihydro-1H-pyrazole-1-carboxamidine]",127 to 129 °C
14,"CN(C)S(=O)(=O)N=C(NCCF)N1CC(c2ccccc2)C(c2ccc(Cl)cc2)=N1 (centres unmarked) [Example 32, 3-(4-Chlorophenyl)-N′-((dimethylamino)sulfonyl)-N-(2-fluoroethyl)-4-phenyl-4,5-dihydro-1H-pyrazole-1-carboxamidine]",128 to 131 °C
15,"CONC(=NS(=O)(=O)N(C)C)N1CC(c2ccccc2)C(c2ccc(Cl)cc2)=N1 (centres unmarked) [Example 34, 3-(4-Chlorophenyl)-N′-((dimethylamino)sulfonyl)-N-methoxy-4-phenyl-4,5-dihydro-1H-pyrazole-1-carboxamidine]",170 to 172 °C
16,"CSC(=NS(=O)(=O)N(C)C)N1CC(c2ccccc2)C(c2ccc(Cl)cc2)=N1 (centres unmarked) [Example 36, 3-(4-Chlorophenyl)-N-((dimethylamino)sulfonyl)-4-phenyl-4,5-dihydro-1H-pyrazole-1-carboximidothioic acid methyl ester]",159 to 160 °C
17,"CCN(CC)S(=O)(=O)N=C(SC)N1CC(c2ccccc2)C(c2ccc(Cl)cc2)=N1 (centres unmarked) [Example 37, 3-(4-Chlorophenyl)-N-((diethylamino)sulfonyl)-4-phenyl-4,5-dihydro-1H-pyrazole-1-carboximidothioic acid methyl ester]",141 to 143 °C
18,"CSC(=NS(=O)(=O)N1CCc2ccccc2C1)N1CC(c2ccccc2)C(c2ccc(Cl)cc2)=N1 (centres unmarked) [Example 38, 3-(4-Chlorophenyl)-4-phenyl-N-((1,2,3,4-tetrahydroisoquinolin-2-yl)sulfonyl)-4,5-dihydro-1H-pyrazole-1-carboximidothioic acid methyl ester]",143 to 145 °C
19,"CCN(c1ccccc1)S(=O)(=O)N=C(SC)N1CC(c2ccccc2)C(c2ccc(Cl)cc2)=N1 (centres unmarked) [Example 39, 3-(4-Chlorophenyl)-N-(((ethyl)phenylamino)sulfonyl)-4-phenyl-4,5-dihydro-1H-pyrazole-1-carboximidothioic acid methyl ester]",143 to 146 °C
20,"CCN(C)S(=O)(=O)N=C(SC)N1CC(c2cccnc2)C(c2ccc(Cl)cc2)=N1 (centres unmarked) [Example 44, 3-(4-Chlorophenyl)-N-(((ethyl)methylamino)sulfonyl)-4-(pyridin-3-yl)-4,5-dihydro-1H-pyrazole-1-carboximidothioic acid methyl ester]",133 to 136 °C
